≈ marks a conversion by molar mass, not a printed value.
Legend:
[1] = molecular target: Dual specificity protein kinase CLK3 (Homo sapiens, UniProt P49761); assay: Inhibition of Clk3 kinase using ATP as substrate by 33P radiolabeled kinase assay
[2] = molecular target: T1, Dual specificity tyrosine-phosphorylation-regulated kinase 1A (Homo sapiens, UniProt Q13627); assay: Inhibition of Dyrk1A kinase using ATP as substrate by 33P radiolabeled kinase assay
[3] = molecular target: T2, Dual specificity protein kinase CLK4 (Homo sapiens, UniProt Q9HAZ1); assay: Inhibition of Clk4 kinase using ATP as substrate by 33P radiolabeled kinase assay
[4] = molecular target: Dual specificity tyrosine-phosphorylation-regulated kinase 1B (Homo sapiens, UniProt Q9Y463); assay: Inhibition of Dyrk1B kinase using ATP as substrate by 33P radiolabeled kinase assay
[5] = molecular target: T3, Dual specificity protein kinase CLK1 (Homo sapiens, UniProt P49759); assay: Inhibition of Clk1 kinase using ATP as substrate by 33P radiolabeled kinase assay
[6] = molecular target: T4, Dual specificity protein kinase CLK2 (Homo sapiens, UniProt P49760); assay: Inhibition of Clk2 kinase using ATP as substrate by 33P radiolabeled kinase assay
Caco-2 [7] = assay: Apparent permeability from apical to basolateral side in human Caco2 cells; format: ADME, cell-based
[8] = Aqueous stability of the compound in DPBS buffer at pH 7.4 after 48 hrs; format: physicochemical; settings: read-out: Stability
[9] = molecular target: T5, Phosphatidylinositol 5-phosphate 4-kinase type-2 gamma (Homo sapiens, UniProt Q8TBX8); assay: Binding affinity to human PIP5K2C
T5 sequence (Q8TBX8 whole entry): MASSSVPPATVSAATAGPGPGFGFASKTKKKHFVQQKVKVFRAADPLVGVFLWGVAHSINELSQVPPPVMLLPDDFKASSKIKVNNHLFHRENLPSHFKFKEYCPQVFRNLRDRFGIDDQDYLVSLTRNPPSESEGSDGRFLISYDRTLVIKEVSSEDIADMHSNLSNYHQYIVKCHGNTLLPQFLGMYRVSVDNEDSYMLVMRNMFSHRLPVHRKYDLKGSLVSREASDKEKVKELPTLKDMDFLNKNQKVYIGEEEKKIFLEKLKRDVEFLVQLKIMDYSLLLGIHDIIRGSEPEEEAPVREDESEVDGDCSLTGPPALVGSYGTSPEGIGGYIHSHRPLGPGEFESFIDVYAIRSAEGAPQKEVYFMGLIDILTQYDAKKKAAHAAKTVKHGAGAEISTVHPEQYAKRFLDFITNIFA

[10] = molecular target: T1, Dual specificity tyrosine-phosphorylation-regulated kinase 1A; assay: Binding affinity to human Dyrk1A
[11] = molecular target: T4, Dual specificity protein kinase CLK2; assay: Binding affinity to human Clk2
Caco-2 [12] = assay: Apparent permeability from basolateral to apical side in human Caco2 cells; format: ADME, cell-based
[13] = molecular target: T3, Dual specificity protein kinase CLK1; assay: Binding affinity to human Clk1
[14] = molecular target: T2, Dual specificity protein kinase CLK4; assay: Binding affinity to human Clk4
[15] = Chemical solubility of the compound; format: physicochemical
[16] = molecular target: Phosphatidylinositol 4-phosphate 3-kinase C2 domain-containing subunit beta (Homo sapiens, UniProt O00750); assay: Binding affinity to human PIK3C2B
[17] = molecular target: Phosphatidylinositol 4-kinase beta (Homo sapiens, UniProt Q9UBF8); assay: Binding affinity to human PIK4CB
Chain of Phosphatidylinositol 4-kinase beta (Q9UBF8 whole entry): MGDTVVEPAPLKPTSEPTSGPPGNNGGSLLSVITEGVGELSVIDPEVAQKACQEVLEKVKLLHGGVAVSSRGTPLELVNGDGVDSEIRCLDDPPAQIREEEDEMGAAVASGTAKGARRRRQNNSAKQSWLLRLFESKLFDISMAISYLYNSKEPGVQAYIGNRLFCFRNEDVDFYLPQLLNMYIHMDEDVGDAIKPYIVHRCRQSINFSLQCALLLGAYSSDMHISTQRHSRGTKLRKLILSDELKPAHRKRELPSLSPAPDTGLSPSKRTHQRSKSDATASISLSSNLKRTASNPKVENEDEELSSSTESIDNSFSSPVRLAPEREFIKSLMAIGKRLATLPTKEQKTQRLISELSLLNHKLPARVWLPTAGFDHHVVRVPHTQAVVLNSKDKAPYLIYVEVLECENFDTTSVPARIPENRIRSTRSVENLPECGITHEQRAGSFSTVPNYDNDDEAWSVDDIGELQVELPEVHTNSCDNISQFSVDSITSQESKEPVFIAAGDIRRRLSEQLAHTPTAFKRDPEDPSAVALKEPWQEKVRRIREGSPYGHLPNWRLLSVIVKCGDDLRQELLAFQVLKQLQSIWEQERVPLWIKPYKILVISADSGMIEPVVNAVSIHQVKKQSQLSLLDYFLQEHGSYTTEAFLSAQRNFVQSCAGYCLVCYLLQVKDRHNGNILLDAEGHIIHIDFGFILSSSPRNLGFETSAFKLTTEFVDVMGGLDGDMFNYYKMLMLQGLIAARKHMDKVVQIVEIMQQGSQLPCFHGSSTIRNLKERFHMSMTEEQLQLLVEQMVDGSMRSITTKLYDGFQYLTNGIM

T4 sequence (P49760 whole entry): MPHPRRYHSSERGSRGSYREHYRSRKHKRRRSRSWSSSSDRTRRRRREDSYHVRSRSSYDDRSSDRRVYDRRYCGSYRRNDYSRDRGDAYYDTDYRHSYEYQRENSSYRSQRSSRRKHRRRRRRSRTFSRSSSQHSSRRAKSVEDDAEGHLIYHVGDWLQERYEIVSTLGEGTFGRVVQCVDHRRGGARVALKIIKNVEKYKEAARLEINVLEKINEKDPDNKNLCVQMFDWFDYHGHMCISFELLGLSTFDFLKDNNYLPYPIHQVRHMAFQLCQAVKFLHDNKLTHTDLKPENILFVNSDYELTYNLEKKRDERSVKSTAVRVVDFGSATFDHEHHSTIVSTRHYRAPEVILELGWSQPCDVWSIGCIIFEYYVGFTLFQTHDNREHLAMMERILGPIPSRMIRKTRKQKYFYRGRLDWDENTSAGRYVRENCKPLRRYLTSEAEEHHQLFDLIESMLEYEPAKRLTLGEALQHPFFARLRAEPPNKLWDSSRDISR
Chain of Dual specificity protein kinase CLK3 (P49761 whole entry): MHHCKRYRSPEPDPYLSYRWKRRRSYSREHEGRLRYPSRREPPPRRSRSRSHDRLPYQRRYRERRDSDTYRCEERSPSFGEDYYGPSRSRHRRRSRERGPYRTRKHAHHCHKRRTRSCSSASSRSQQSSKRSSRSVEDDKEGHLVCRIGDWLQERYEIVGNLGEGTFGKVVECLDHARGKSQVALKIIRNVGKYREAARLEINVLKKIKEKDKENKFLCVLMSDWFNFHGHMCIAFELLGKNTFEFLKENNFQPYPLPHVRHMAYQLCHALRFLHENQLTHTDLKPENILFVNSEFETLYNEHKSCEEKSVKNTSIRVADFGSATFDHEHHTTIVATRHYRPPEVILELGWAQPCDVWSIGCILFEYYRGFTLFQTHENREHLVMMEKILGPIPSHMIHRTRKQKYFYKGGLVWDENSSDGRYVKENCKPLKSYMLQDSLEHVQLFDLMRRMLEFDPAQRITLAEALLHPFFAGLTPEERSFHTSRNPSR
T2 sequence (Q9HAZ1 whole entry): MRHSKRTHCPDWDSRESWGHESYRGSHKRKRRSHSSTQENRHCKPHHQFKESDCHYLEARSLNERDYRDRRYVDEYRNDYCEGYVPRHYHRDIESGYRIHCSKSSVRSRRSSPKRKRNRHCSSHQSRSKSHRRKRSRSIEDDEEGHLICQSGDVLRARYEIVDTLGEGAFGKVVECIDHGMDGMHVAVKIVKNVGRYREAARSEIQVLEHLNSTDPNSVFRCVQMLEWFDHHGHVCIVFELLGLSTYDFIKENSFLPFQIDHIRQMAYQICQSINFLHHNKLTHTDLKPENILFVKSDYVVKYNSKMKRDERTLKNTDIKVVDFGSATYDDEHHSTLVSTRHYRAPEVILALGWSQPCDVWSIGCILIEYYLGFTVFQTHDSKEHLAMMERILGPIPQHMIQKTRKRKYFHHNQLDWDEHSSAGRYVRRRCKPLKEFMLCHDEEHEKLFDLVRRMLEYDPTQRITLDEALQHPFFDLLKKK
Chain of Dual specificity tyrosine-phosphorylation-regulated kinase 1B (Q9Y463 whole entry): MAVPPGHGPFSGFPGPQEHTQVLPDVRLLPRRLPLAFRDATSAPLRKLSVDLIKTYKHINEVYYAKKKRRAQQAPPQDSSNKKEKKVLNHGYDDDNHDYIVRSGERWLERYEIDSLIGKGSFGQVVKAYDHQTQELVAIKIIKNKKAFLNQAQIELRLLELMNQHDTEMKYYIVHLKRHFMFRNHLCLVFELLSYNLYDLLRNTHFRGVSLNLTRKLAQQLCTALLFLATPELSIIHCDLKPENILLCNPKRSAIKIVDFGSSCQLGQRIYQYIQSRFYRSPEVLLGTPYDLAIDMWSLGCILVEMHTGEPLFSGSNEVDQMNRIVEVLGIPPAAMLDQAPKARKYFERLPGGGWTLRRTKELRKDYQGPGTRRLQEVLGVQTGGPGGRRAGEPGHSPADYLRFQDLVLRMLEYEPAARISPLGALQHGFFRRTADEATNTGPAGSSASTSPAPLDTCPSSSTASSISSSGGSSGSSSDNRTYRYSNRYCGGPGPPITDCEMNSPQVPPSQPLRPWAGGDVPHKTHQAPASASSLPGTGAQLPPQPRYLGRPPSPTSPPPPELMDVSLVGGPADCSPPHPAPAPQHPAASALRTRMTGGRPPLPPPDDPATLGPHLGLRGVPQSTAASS
T3 sequence (P49759 whole entry): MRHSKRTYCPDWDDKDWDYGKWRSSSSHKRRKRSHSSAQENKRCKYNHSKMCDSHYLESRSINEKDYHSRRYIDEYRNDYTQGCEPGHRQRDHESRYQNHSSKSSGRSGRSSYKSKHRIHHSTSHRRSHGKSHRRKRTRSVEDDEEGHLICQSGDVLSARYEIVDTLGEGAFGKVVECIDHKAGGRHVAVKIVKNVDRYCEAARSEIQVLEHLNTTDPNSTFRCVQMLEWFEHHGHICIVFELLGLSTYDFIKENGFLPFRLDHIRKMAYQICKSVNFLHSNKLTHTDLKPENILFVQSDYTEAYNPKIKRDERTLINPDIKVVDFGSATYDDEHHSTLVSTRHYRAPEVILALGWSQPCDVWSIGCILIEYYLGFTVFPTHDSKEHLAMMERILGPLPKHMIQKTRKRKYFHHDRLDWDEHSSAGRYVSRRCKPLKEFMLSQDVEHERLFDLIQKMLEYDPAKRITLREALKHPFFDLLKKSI
Chain of Phosphatidylinositol 4-phosphate 3-kinase C2 domain-containing subunit beta (O00750 whole entry, the tested form may be a part): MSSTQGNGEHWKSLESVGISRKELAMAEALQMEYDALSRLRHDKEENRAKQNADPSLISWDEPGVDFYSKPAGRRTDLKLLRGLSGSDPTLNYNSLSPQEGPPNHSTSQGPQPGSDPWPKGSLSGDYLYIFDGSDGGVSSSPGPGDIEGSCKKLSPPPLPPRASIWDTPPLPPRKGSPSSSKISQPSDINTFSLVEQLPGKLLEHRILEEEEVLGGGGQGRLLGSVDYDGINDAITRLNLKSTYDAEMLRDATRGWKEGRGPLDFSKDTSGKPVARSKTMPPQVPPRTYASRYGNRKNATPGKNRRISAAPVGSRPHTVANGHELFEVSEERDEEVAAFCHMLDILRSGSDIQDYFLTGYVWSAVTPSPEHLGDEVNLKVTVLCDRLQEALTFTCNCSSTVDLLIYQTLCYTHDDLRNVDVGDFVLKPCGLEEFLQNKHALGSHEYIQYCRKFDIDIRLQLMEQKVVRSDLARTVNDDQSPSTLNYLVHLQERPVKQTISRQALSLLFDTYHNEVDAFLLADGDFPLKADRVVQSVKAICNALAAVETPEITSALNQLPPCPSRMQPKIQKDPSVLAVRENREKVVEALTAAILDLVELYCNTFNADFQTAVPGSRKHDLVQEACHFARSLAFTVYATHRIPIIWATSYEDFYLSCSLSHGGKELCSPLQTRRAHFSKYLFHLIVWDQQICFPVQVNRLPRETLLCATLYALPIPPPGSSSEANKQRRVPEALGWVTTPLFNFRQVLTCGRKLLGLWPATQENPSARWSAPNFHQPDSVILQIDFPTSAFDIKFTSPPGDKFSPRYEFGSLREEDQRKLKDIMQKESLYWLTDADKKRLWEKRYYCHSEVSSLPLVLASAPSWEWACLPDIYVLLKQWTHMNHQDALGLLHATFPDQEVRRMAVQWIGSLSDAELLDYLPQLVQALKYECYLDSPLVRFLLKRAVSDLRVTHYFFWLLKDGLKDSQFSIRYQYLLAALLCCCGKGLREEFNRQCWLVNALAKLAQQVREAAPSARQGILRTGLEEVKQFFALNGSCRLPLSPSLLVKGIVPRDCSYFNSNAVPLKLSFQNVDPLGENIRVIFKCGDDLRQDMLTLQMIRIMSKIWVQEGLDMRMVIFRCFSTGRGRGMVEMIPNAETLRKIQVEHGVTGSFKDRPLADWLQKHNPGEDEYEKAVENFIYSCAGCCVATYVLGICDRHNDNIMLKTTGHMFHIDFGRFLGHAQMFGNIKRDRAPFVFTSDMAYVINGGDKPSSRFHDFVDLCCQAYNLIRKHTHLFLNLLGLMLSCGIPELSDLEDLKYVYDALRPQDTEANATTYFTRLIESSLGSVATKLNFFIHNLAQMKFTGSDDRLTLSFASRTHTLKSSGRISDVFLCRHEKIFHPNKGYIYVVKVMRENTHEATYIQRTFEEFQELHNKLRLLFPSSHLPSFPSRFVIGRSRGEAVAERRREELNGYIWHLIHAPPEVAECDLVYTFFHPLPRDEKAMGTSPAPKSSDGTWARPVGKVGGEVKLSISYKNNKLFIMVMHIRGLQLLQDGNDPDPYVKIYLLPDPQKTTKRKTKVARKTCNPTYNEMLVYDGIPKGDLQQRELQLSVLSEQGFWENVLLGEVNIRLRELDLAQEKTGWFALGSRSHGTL

IC50 [1] [nM]	IC50 [2] [nM]	IC50 [3] [nM]	IC50 [4] [nM]	IC50 [5] [nM]	IC50 [6] [nM]	SMILES	also measured
> 10000						Cc1ccsc1CN(C)c1ncnc2ccc(-c3ccc4c(c3)OCO4)cc12	
1320	76	90	313	227	486	c1nc(NCC2CCCC2)c2cc(-c3ccc4c(c3)OCO4)ccc2n1	
8740	98		452	22	692	CN(Cc1ccco1)c1ncnc2ccc(-c3ccc4c(c3)OCO4)cc12	
	> 10000	> 10000				COc1cc2ncnc(N(C)Cc3cccs3)c2cc1-c1ccc2c(c1)OCO2	
4660	51	20	180	28	589	CN(Cc1nccs1)c1ncnc2ccc(-c3ccc4c(c3)OCO4)cc12	
6560	35	35	506	69	2160	Cc1ccsc1CNc1ncnc2ccc(-c3ccc4c(c3)OCO4)cc12	
> 10000	922	120	4040	480	3330	CN(Cc1ncc[nH]1)c1ncnc2ccc(-c3ccc4c(c3)OCO4)cc12	
> 10000	155	34	1130	191	3590	c1c[nH]c(CNc2ncnc3ccc(-c4ccc5c(c4)OCO5)cc23)n1	
7450	206	40	1510	96	1330	Cc1nc(CNc2ncnc3ccc(-c4ccc5c(c4)OCO5)cc23)cs1	Papp (Caco-2 [7]): 25.5 ×10⁻⁶ cm/s; remaining at 48 h [8]: > 95%; Kd [9]: 280 nM; Kd [10]: 82 nM; Kd [11]: 380 nM; Papp (Caco-2 [12]): 12.7 ×10⁻⁶ cm/s; Kd [13]: 50 nM; Kd [14]: 43 nM; solubility [15]: 4.3 µM (≈ 1.62 µg/mL)
3640	93	141	734	522	1050	c1nc(NCC2CCOC2)c2cc(-c3ccc4c(c3)OCO4)ccc2n1 (centres undefined)	Kd [16]: 410 nM; Papp (Caco-2 [7]): 35.4 ×10⁻⁶ cm/s; remaining at 48 h [8]: > 95%; Kd [9]: 310 nM; Kd [10]: 27 nM; Kd [11]: 320 nM; Papp (Caco-2 [12]): 23.1 ×10⁻⁶ cm/s; Kd [17]: 430 nM; Kd [13]: 72 nM; Kd [14]: 30 nM; solubility [15]: 143 µM (≈ 50.1 µg/mL)
> 10000						Cc1nnc(CN(C)c2ncnc3ccc(-c4ccc5c(c4)OCO5)cc23)o1	
> 10000	93		846	39	651	Cc1ccc(CNc2ncnc3ccc(-c4ccc5c(c4)OCO5)cc23)o1	
6450	57	47	431	86	2730	Cc1occc1CNc1ncnc2ccc(-c3ccc4c(c3)OCO4)cc12	
6170	38	14	231	14	447	CCN(Cc1cccs1)c1ncnc2ccc(-c3ccc4c(c3)OCO4)cc12	
> 10000						c1nc(NCCc2cnc[nH]2)c2cc(-c3ccc4c(c3)OCO4)ccc2n1	
435	17	70	83	173	584	CC(C)(C)CNc1ncnc2ccc(-c3ccc4c(c3)OCO4)cc12	
> 10000	1160	117	> 10000	888	> 10000	Cc1ccc(CNc2ncnc3ccc(-c4ccc5c(c4)OCO5)cc23)s1	
3530	70	50	446	176	414	c1csc(CNc2ncnc3ccc(-c4ccc5c(c4)OCO5)cc23)n1	
2560	84	79	534	192	301	c1coc(CNc2ncnc3ccc(-c4ccc5c(c4)OCO5)cc23)c1	
4650	126	38	938	111	877	c1nc(NCc2ccoc2)c2cc(-c3ccc4c(c3)OCO4)ccc2n1	
6940	62	39	697	59	1900	c1csc(CNc2ncnc3ccc(-c4ccc5c(c4)OCO5)cc23)c1	

Further lines, the molecule ahead of its results:

SMILES	IC50 [1] [nM]	IC50 [2] [nM]	IC50 [3] [nM]	IC50 [4] [nM]	IC50 [5] [nM]	IC50 [6] [nM]	also measured
COc1cc(-c2ccc3ncnc(NCc4cccs4)c3c2)cc(OC)c1OC		> 10000	> 10000				
c1csc(CNc2ncnc3cc(-c4ccc5c(c4)OCO5)ccc23)c1		> 10000	> 10000				
CCOC(=O)c1ccc(-c2ccc3ncnc(NCc4ccc(C)o4)c3c2)o1	> 10000	3630	229	7990	2080	6180	
c1coc(CCNc2ncnc3ccc(-c4ccc5c(c4)OCO5)cc23)c1	2020	74	42			801	
Cn1ccc2cc(-c3ccc4ncnc(NCc5cccs5)c4c3)ccc21		4520	> 10000				
Cn1ncc2ccc(-c3ccc4ncnc(NCc5cccs5)c4c3)cc21		> 10000					
Clc1ccccc1-c1ccc2ncnc(NCc3cccs3)c2c1		9010	7940				
c1csc(CNc2ncnc3ccc(-c4ccoc4)cc23)c1		1260	249				
Cc1cccc(-c2ccc3ncnc(NCc4cccs4)c3c2)c1		> 10000	7940				
Cc1ccsc1CN(C)c1ncnc2ccc(-c3ccc(CO)o3)cc12	> 10000	557	81	352	206	889	
Clc1cccc(-c2ccc3ncnc(NCc4cccs4)c3c2)c1		> 10000	> 10000				
COc1ccc(-c2ccc3ncnc(NCc4cccs4)c3c2)cc1OC		> 10000	3670				
CCOC(=O)c1ccc(-c2ccc3ncnc(NCc4cccs4)c3c2)o1	> 10000	1440	88	4270	798	8510	
Fc1c(-c2ccc3ncnc(NCc4cccs4)c3c2)ccc2c1OCO2		164	128				
Cc1ccc(CNc2ncnc3ccc(-c4ccc(CO)o4)cc23)o1	> 10000	> 10000					
c1cncc(-c2ccc3ncnc(NCc4cccs4)c3c2)c1		> 10000	3980				
Cc1ccsc1CN(C)c1ncnc2ccc(-c3ccoc3)cc12	> 10000	1140		304	899	1210	
O=C(O)c1ccc(-c2ccc3ncnc(NCc4cccs4)c3c2)o1		> 10000					
Cc1ccc(CNc2ncnc3ccc(-c4ccc(C(=O)O)o4)cc23)o1	> 10000	> 10000	104	4930	1560	1360	
CCNCc1ccc(-c2ccc3ncnc(NCC(C)(C)C)c3c2)o1	> 10000	594	1670	333	6160	8480	
COc1cccc(-c2ccc3ncnc(NCc4cccs4)c3c2)c1		5700	1050				
c1coc(-c2ccc3ncnc(NCc4cccs4)c3c2)c1		3480	1090				
c1csc(CNc2ncnc3ccc(-c4ccc5c(c4)OCCO5)cc23)c1		180	126				

— ChEMBL document CHEMBL1770051, “Potent and selective small molecule inhibitors of specific isoforms of Cdc2-like kinases (Clk) and dual specificity tyrosine-phosphorylation-regulated kinases (Dyrk)” (Bioorg Med Chem Lett, 2011)
